The subject of this assay is SARS-CoV-2 South African variant. The format is in vivo, LVG Golden Syrian male hamsters.

Read-outs that look alike come from different tables or passages of the source.

With “Asp-Arg-Val-Tyr-Ile-His-Pro (DRVYIHP; printed: Asp-Arg-Val-Tyr-Ile-His-Pro) [angiotensin 1-7]”, the “daily body weights expressed as the percentage of starting body weight” value (pump implant delivering angiotensin 1-7 at 12 mg/kg/day, started the day after inoculation with 500,000 PFU, n=3) is reported as “continued to gain weight through the entire course of infection”.
As for `CCNC(=O)NS(=O)(=O)c1sc(CC(C)C)cc1-c1ccc(Cn2c(-c3ccccc3)nc(OC)c2C=O)cc1` [AVE0991, N-(Ethylcarbamoyl)-3-(4-((5-formyl-4-methoxy-2-phenyl-1H-imidazol-1-YL)methyl)phenyl)-5-isobutylthiophene-2-sulfonamide], the “daily body weights expressed as the percentage of starting body weight” value (hamster, in vivo) was “continued to gain weight through the entire course of infection”.
